Data reported in US6737383B1, “Herbicidal oxadiazolidines” (priority 1999, dated 2004).

Columns and labels:
blackgrass = assay: Test B pre/postemergence blackgrass; type: in vivo, Alopecurus myosuroides
How it was run: (§1)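 Herbicidal effect was estimated by eye on a ten-point control scale after plants spent twelve to sixteen days in a greenhouse following soil or foliar treatment. Foliar sprays targeted plants at one to four leaves; all doses were formulated in a non-phytotoxic solvent with surfactant.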

soybean = assay: Test B pre/postemergence soybean; type: in vivo, Glycine max
How it was run: as §1

rice = assay: Test B flood test rice; type: in vivo, Oryza sativa
How it was run: (§2)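 Read-out is a visual response score from 0 (no effect) to 10 (complete control), assigned by comparison with untreated controls. Treatment was applied at the 2-leaf stage, and plants stayed in the greenhouse for twelve to sixteen days before scoring.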

smallflower flatsedge = assay: Test B flood test smallflower flatsedge; type: in vivo, Cyperus difformis
How it was run: as §2

pigweed = assay: Test B pre/postemergence pigweed; type: in vivo, Amaranthus retroflexus
How it was run: as §1

giant foxtail = assay: Test B pre/postemergence giant foxtail; type: in vivo, Setaria faberii
How it was run: as §1

rape = assay: Test B pre/postemergence rape; type: in vivo, Brassica napus
How it was run: as §1

cocklebur = assay: Test B pre/postemergence cocklebur; type: in vivo, Xanthium strumarium
How it was run: as §1

wheat = assay: Test B pre/postemergence wheat; type: in vivo, Triticum aestivum
How it was run: as §1

duck salad = assay: Test B flood test duck salad; type: in vivo, Heteranthera limosa
How it was run: as §2

bamyardgrass = assay: Test B flood test barnyardgrass; type: in vivo, Echinochloa crus-galli
How it was run: as §2

[1] = Preemergence, Rate 62 g/ha, scale of 0 to 10 where 0 is no effect and 10 is complete control
[2] = Preemergence, Rate 250 g/ha, scale of 0 to 10 where 0 is no effect and 10 is complete control
[3] = Preemergence, Rate 500 g/ha, scale of 0 to 10 where 0 is no effect and 10 is complete control
[4] = Rate 62 g/ha, Postemergence, scale of 0 to 10 where 0 is no effect and 10 is complete control
[5] = Rate 125 g/ha, Postemergence, scale 0 to 10
[6] = Rate 125 g/ha, Preemergence, scale of 0 to 10 where 0 is no effect and 10 is complete control
[7] = Rate 500 g/ha, Postemergence, scale 0 to 10, 0 no effect, 10 complete control
[8] = Rate 62 g/ha, headed Pre-emergence (flood test species), scale 0 to 10 (0 no effect, 10 complete control)
[9] = Rate 125 g/ha, Pre-emergence, flood test species, scale 0 to 10 where 0 is no effect and 10 is complete control
[10] = Rate 250 g/ha, Pre-emergence, flood-test species, scale 0 to 10, 0 is no effect, 10 is complete control
[11] = Rate 500 g/ha, Pre-emergence, flood test species, scale 0 to 10 (0 no effect, 10 complete control)

CCCCCC#CCn1c(=O)on(C(=O)N(c2ccc(F)cc2)C(C)C)c1=O [Compound 254]
Blackgrass plant response rating (blackgrass; [1]): 0 | Blackgrass plant response rating (blackgrass; [2]): 0 | Plant response rating, Blackgrass (blackgrass; [3]): 4 | Blackgrass plant response rating (blackgrass; [4]): 0 | Blackgrass plant response rating (blackgrass; [5]): 0 | Blackgrass plant response rating (blackgrass; [6]): 0 | Plant response rating (0 to 10; 0 is no effect, 10 is complete control), Blackgrass (blackgrass; Rate 250 g/ha, Postemergence): 0 | Blackgrass plant response rating (blackgrass; [7]): 0 | Soybean plant response rating (soybean; [1]): 0 | Soybean plant response rating (soybean; [2]): 0 | Plant response rating, Soybean (soybean; [3]): 0 | Soybean plant response rating (soybean; [6]): 0 | Soybean plant response rating (soybean; [7]): 2 | Rice plant response rating (rice; [8]): 0 | Rice plant response rating (rice; [9]): 0 | Rice plant response rating (rice; [10]): 0 | Rice plant response rating (rice; [11]): 0 | S. Flatsedge plant response rating (smallflower flatsedge; [8]): 0 | S. Flatsedge plant response rating (smallflower flatsedge; [9]): 0 | S. Flatsedge plant response rating (smallflower flatsedge; [10]): 0 | S. Flatsedge plant response rating (smallflower flatsedge; [11]): 0 | Redroot pigweed plant response rating (pigweed; [1]): 0 | Redroot pigweed plant response rating (pigweed; [2]): 0 | Plant response rating, Redroot pigweed (pigweed; [3]): 0 | Redroot pigweed plant response rating (pigweed; [6]): 0 | Plant response rating (0 to 10; 0 is no effect, 10 is complete control), Redroot pigweed (pigweed; Rate 250 g/ha, Postemergence): 3 | Redroot pigweed plant response rating (pigweed; [7]): 6 | Giant foxtail plant response rating (giant foxtail; [1]): 0 | Giant foxtail plant response rating (giant foxtail; [2]): 6 | Plant response rating, Giant foxtail (giant foxtail; [3]): 10 | Giant foxtail plant response rating (giant foxtail; [6]): 3 | Plant response rating (0 to 10; 0 is no effect, 10 is complete control), Giant foxtail (giant foxtail; Rate 250 g/ha, Postemergence): 0 | Giant foxtail plant response rating (giant foxtail; [7]): 0 | Rape plant response rating (rape; [1]): 0 | Rape plant response rating (rape; [2]): 2 | Plant response rating, Rape (rape; [3]): 6 | Rape plant response rating (rape; [6]): 0 | Plant response rating (0 to 10; 0 is no effect, 10 is complete control), Rape (rape; Rate 250 g/ha, Postemergence): 2 | Rape plant response rating (rape; [7]): 2 | Cocklebur plant response rating (cocklebur; [1]): 0 | Cocklebur plant response rating (cocklebur; [2]): 0 | Plant response rating, Cocklebur (cocklebur; [3]): 0 | Cocklebur plant response rating (cocklebur; [4]): 0 | Cocklebur plant response rating (cocklebur; [5]): 0 | Cocklebur plant response rating (cocklebur; [6]): 0 | Plant response rating (0 to 10; 0 is no effect, 10 is complete control), Cocklebur (cocklebur; Rate 250 g/ha, Postemergence): 0 | Cocklebur plant response rating (cocklebur; [7]): 0 | Wheat plant response rating (wheat; [1]): 0 | Wheat plant response rating (wheat; [2]): 0 | Plant response rating, Wheat (wheat; [3]): 0 | Wheat plant response rating (wheat; [6]): 0 | Wheat plant response rating (wheat; [7]): 0 | Ducksalad plant response rating (duck salad; [8]): 0 | Ducksalad plant response rating (duck salad; [9]): 0 | Ducksalad plant response rating (duck salad; [10]): 0 | Ducksalad plant response rating (duck salad; [11]): 0 | Barnyardgrass plant response rating (bamyardgrass; [8]): 0 | Barnyardgrass plant response rating (bamyardgrass; [9]): 0
